The assay addresses von Hippel-Lindau disease tumor suppressor/GTPase KRas (Homo sapiens, UniProt P01116+P40337, G12D). The assay is described as follows: PROTAC activity at VHL/KRAS G12D mutant in human HPAF-II cells assessed as induction of protein degradation incubated for 24 hrs by Western blot analysis. Type of assay: cell-based. (In general: Immunoblotting shows a protein as a band on a membrane.)

The structures appear in SMILES notation.

Chain of von Hippel-Lindau disease tumor suppressor/GTPase KRas (P01116 whole entry G12D, stated change not applied): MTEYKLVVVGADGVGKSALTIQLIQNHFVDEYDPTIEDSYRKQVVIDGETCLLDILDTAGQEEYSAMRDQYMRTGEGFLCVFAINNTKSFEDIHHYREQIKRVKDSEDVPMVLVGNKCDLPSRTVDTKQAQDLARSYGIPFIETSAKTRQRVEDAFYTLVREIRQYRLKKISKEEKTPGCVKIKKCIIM
Chain of von Hippel-Lindau disease tumor suppressor/GTPase KRas (P40337 whole entry, stated change not applied): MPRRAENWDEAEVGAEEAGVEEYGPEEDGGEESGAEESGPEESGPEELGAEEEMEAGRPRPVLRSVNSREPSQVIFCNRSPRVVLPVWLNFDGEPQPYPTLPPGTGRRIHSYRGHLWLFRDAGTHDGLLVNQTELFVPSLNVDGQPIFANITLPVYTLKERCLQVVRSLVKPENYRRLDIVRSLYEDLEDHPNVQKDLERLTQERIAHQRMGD

For the compound `CCc1c(F)ccc2cc(O)cc(-c3ncc4c(N5C[C@H]6CC[C@@H](C5)N6)nc(OC[C@@H]5CCCN5CCCCOCC(=O)N[C@H](C(=O)N5C[C@H](O)C[C@H]5C(=O)N[C@@H](C)c5ccc(-c6scnc6C)cc5)C(C)(C)C)nc4c3F)c12`, the DC50 is 53 nM.

One may read the DC50 as the midpoint of the concentration-degradation curve.

Values taken from ChEMBL document CHEMBL5537171, “Design, Synthesis, and Biological Evaluation of Potent and Selective PROTAC Degraders of Oncogenic KRASG12D” (J Med Chem, 2024).
